Reference: publication PMC10045298, “In Vitro Pharmacokinetic Behavior of Antiviral 3-Amidinophenylalanine Derivatives in Rat, Dog and Monkey Hepatocytes” (Biomedicines, 2023)
“Also recorded” adds a separate entry of the source. Like-named read-outs stand apart in the source and are kept apart here.

How the values were obtained:
CYP2C19 = conditions: cited from earlier work
cynomolgus monkey CYP1A2 = conditions: cited from earlier work
SARS-CoV-2 [1] = system: SARS-CoV-2; design: method as in PMID 32703818; conditions: Calu-3 cells (airway epithelial cells) infected with SARS-CoV-2; cited from earlier work
CYP2C9 = conditions: cited from earlier work
human serum albumin = conditions: cited from earlier work
human CYP3A4 = conditions: cited from earlier work
CYP1A2 = conditions: cited from earlier work
TMPRSS2 [2] = conditions: competitive inhibition; previous enzyme kinetic measurements; cited from earlier work
[3] = Depletion of inhibitors in cynomolgus monkey primary hepatocyte suspension (LC-MS/MS), PK prediction; format: in vitro ADME; conditions: cynomolgus monkey, cryopreserved primary hepatocytes in suspension; macaque hepatocytes, 10 µM inhibitor, 5 × 10^5 cells/mL, 0-300 min, scaled to liver/bw
Description: (§1) Cryopreserved rat, dog and cynomolgus monkey primary hepatocytes were obtained from Primacyt (Primacyt, Schwerin, Germany). Hepatocytes were thawed using cryopreserved hepatocyte thawing medium (Primacyt, Schwerin, Germany), and cells were centrifuged (10 min, 100× g, 20 °C) to remove supernatants. The viability of hepatocytes was examined by the Trypan blue exclusion method, and it was confirmed that more than 90% of the cells were alive. Cell suspensions were then diluted with serum-free maintenance medium (Primacyt, Schwerin, Germany) after cell counting in Bürker chamber to the appropriate concentration (original concentration of the viable hepatocytes was 10^7 cells/mL).
(§2) Stock solutions of MI-463, MI-472, MI-485 and MI-1900 (10 mM) in dimethyl-sulfoxide were kept at −20 °C. Time courses of the unchanged amount of the inhibitors (in %) after incubation with hepatocytes were measured. Each compound was incubated in cell suspension (at the concentration of 5 × 10^5 cells/mL in 6-well plates) at constant and low-speed shaking at 37 °C in a humid atmosphere containing 5% CO2. […] Cells were incubated with serum-free maintenance medium either without or with each selected MI for 5 h. At various time points (0, 30, 60, 120, 180, and 300 min), the incubation mixtures were sampled (aliquots: 0.15 mL) and terminated by the addition of 0.1 mL ice-cold acetonitrile. The cell debris was separated by centrifugation, and the supernatants were analyzed by LC-MS/MS for quantitation of the remaining amount of the inhibitors.
(§3) For the LC-MS/MS investigations, 120 μL from the incubation mixture samples obtained as described above was removed and mixed with 315 μL chilled acetonitrile and 15 μL triphenylphosphate solution (TPP; 12000 ng/mL in acetonitrile) used as internal standard for the quantitation. After vortex mixing, the samples were centrifuged at 4 °C and 13300 RPM for 10 min. The supernatant was filtered through a PVDF syringe filter of 0.22 μm pore diameter, then transferred to chromatographic vials.
(§4) The LC-MS/MS instrument used for analyzing the MI compounds was a Shimadzu LCMS 8030+ system operated with an electrospray ion source (ESI) in positive multiple reaction monitoring (MRM) mode. A Phenomenex Kinetex C18 EVO 100 × 4.6 mm ID (2.6 µm particle size) column equipped with a 40 × 2 mm C18 guard column was used for the chromatographic separation. Gradient elution was used with eluents “A”: 50 mM ammonium acetate in water (pH 5 set by acetic acid) and “B”: 0.1 v/v% formic acid in acetonitrile. The flow rate was 0.4 mL/min, a chromatographic run took 8 min. The column oven was set to 30 °C, and the autoinjector’s temperature was at 6 °C. The injected volume was 10 µL. Other MS parameters were as follows: interface 4.5 kV; interface temperature 350 °C; desolvation line 300 °C; heat block 400 °C; detector 1.78 kV, nebulizing gas (N2) 3 liters/min, drying gas (N2) 15 liters/min; collision gas (Ar) 230 kPa.
(§5) The intrinsic clearance for hepatocytes (Clint) [mL (min 5 × 10^5 cells) ^−1] was calculated from the decrease in the concentration of MI compounds as follows: Clint = β=ln2/t1/2 [28] For scaling up, the Clint value to obtain Clint per whole liver (g)/bw(kg), the cell concentration in liver, the average liver weight and average body weight parameters were used (Table 1). The value for hepatic clearance (ClH) was calculated as follows: ClH=Clintliver/bw∗fu∗Qplasma/(Clintliver/bw∗fu)+Qplasma where the flow rate of Qplasma = QH* plasma/blood ratio. To calculate ClH, the hepatic flow rate, plasma/blood ratio (Table 1) and fu = 1 values were used. (QH is the hepatic blood flow, while fu is the unbound fraction of the compound.) The hepatic extraction ratio was defined as E = ClH/QH, and the bioavailability (%) was F = (1 − E) * 100 [28, 31, 32, 33].

[4] = system: cynomolgus monkey primary hepatocytes; experiment: as above; format: in vitro ADME; conditions: for Depletion of parent compound (in words): cynomolgus monkey hepatocytes, 10 µM, 0-300 min; for Extraction Ratio EH / Classification / Predicted Cl CLH: macaque; for Classification: 0.3 cut-off of E between low and intermediate extraction; for Predicted Cl CLH: fu = 1
Description: as §1, §2, §3, §4, §5

[5] = Depletion of inhibitors in rat primary hepatocyte suspension (LC-MS/MS), PK prediction; format: in vitro ADME; conditions: cryopreserved primary hepatocytes in suspension; rat hepatocytes, 10 µM inhibitor, 5 × 10^5 cells/mL, 0-300 min, scaled to liver/bw
Description: as §1, §2, §3, §4, §5

rat primary hepatocytes = experiment: as above; format: in vitro ADME; conditions: for Extraction Ratio EH / Classification / Predicted Cl CLH: rat; for Classification: 0.3 cut-off of E between low and intermediate extraction; for Predicted Cl CLH: fu = 1
Description: as §1, §2, §3, §4, §5

[6] = Depletion of inhibitors in dog primary hepatocyte suspension (LC-MS/MS), PK prediction; format: in vitro ADME; conditions: dog, cryopreserved primary hepatocytes in suspension, dog hepatocytes, 10 µM inhibitor, 5 × 10^5 cells/mL, 0-300 min, scaled to liver/bw
Description: as §1, §2, §3, §4, §5

dog primary hepatocytes = experiment: as above; format: in vitro ADME; conditions: for Extraction Ratio EH / Classification / Predicted Cl CLH: dog; for Depletion of parent compound (in words): 10 µM; for Classification: 0.3 cut-off of E between low and intermediate extraction; for Predicted Cl CLH: fu = 1
Description: as §1, §2, §3, §4, §5

matriptase = conditions: previous enzyme kinetic measurements, cited from earlier work
H9N2 influenza virus = conditions: MDCK cells, matriptase-dependent; cited from earlier work
SARS-CoV-2 [7] = system: SARS-CoV-2; design: method as in PMID 35344983; conditions: human lung epithelium-derived human airway cells; cited from earlier work
SARS-CoV-2 [8] = system: SARS-CoV-2; design: method as in PMID 35344983; conditions: K18-human ACE2 transgenic mouse model; cited from earlier work
TMPRSS2 [9] = system: TMPRSS2; design: method as in PMID 35344983; conditions: cited from earlier work
COVID-19 = system: COVID-19; design: method as in PMID 35803469; conditions: repurposed drug candidate; cited from earlier work

Structure (SMILES) | Influence on CYP2C19 activity (CYP2C19) | Modulation of cynomolgus monkey CYP1A2 (cynomolgus monkey CYP1A2) | Influence on CYP2C9 activity (CYP2C9) | Binding to human serum albumin (human serum albumin) | Modulation of human CYP3A4 function (human CYP3A4) | Influence on CYP1A2 activity (CYP1A2) | CLint scaled at 10 µM [3] [mL/min/kg] | Extraction Ratio EH [4] | Classification [4] | Predicted Cl CLH [4] | CLint scaled at 10 µM [5] [mL/min/kg] | Extraction Ratio EH (rat primary hepatocytes) | Classification (rat primary hepatocytes) | Predicted Cl CLH (rat primary hepatocytes) | CLint scaled at 10 µM [6] [mL/min/kg] | Extraction Ratio EH (dog primary hepatocytes) | Depletion of parent compound (in words) (dog primary hepatocytes; dog hepatocytes, 0-300 min) | Classification (dog primary hepatocytes) | Predicted Cl CLH (dog primary hepatocytes) | other results
N=C(N)c1cccc(C[C@H](NS(=O)(=O)c2cccc(-c3ccc(Cl)cc3Cl)c2)C(=O)N2CCC(CCN)CC2)c1.O=C(O)C(F)(F)F.O=C(O)C(F)(F)F [MI-432] | did not influence the activity | could modulate | did not influence the activity | did not bind to human serum albumin to a great extent | could modulate | did not influence the activity | – | – | – | – | – | – | – | – | – | – | – | – | – | SARS-CoV-2 virus titer (SARS-CoV-2 [1]): could successfully lower viral titers; also recorded: effectively decrease SARS-CoV-2 virus titer
COc1ccc(-c2cccc(S(=O)(=O)N[C@@H](Cc3cccc(C(=N)N)c3)C(=O)N3CCC(NC(=O)NC4CCCCC4)CC3)c2)c(OC)c1 [MI-463] | did not influence the activity | could modulate | did not influence the activity | did not bind to human serum albumin to a great extent | could modulate | did not influence the activity | 6.58 | 0.121 | Low-extraction drug | 5.27 | 31.9 | 0.289 | Low-extraction drug | 15.97 | 19.5 | 0.299 | slowly decreased from 180 min; also recorded: pronounced stability against biotransformation | Low-extraction drug | 9.25 | Ki (TMPRSS2 [2]): very low, nanomolar; Depletion of parent compound (in words) [4]: elevated depletion rates; Depletion of parent compound (in words) (rat primary hepatocytes; rat hepatocytes, 10 µM, 0-300 min): elevated depletion rates; Ki (matriptase): very low, nanomolar
COc1ccc(-c2cccc(S(=O)(=O)N[C@@H](Cc3cccc(C(=N)N)c3)C(=O)N3CCC(N)CC3)c2)c(OC)c1 [MI-472] | – | – | – | – | – | – | 12 | 0.190 | Low-extraction drug | 8.27 | 35.6 | 0.305 | Intermediate-extraction drug | 16.85 | 26.7 | 0.343 | significantly depleted even at 30 min | Intermediate-extraction drug | 10.61 | –
COc1ccc(-c2cccc(S(=O)(=O)N[C@@H](Cc3cccc(C(=N)N)c3)C(=O)N3CCC(NC(=O)NC(C)(C)C)CC3)c2)c(OC)c1 [MI-485] | – | – | – | – | – | – | 11.4 | 0.183 | Low-extraction drug | 7.98 | 37.8 | 0.314 | Intermediate-extraction drug | 17.33 | 22.8 | 0.321 | significantly depleted even at 30 min | Intermediate-extraction drug | 9.93 | Inhibition of H9N2 influenza virus replication (H9N2 influenza virus): showed inhibition; Ki (matriptase; read-out: Ki): < 5 nM
COc1ccc(-c2cccc(S(=O)(=O)N[C@@H](Cc3cccc(C(=N)N)c3)C(=O)N3CCN(C(=O)NC4CCCCC4)CC3)c2)c(OC)c1 [MI-1900] | did not influence the activity | could modulate | did not influence the activity | did not bind to human serum albumin to a great extent | could modulate | did not influence the activity | 16.1 | 0.230 | Low-extraction drug | 10.03 | 33.8 | 0.298 | Low-extraction drug | 16.43 | 10.5 | 0.212 | significantly depleted even at 30 min | Low-extraction drug | 6.56 | Ki (TMPRSS2 [2]): very low, nanomolar; Depletion of parent compound (in words) [4]: depleted at the highest speed; also recorded: rapidly; also recorded: depleted faster; SARS-CoV-2 virus titer (SARS-CoV-2 [1]): could successfully lower viral titers; also recorded: effectively decrease SARS-CoV-2 virus titer; CLint scaled (dog primary hepatocytes; dog hepatocytes, 10 µM inhibitor, 5 × 10^5 cells/mL, 0-300 min, scaled to liver/bw): 10.5 mL/min/kg; Ki (matriptase): very low, nanomolar
CS(=O)(=O)N[C@@H](CCC(N)=O)C(=O)N[C@@H](Cc1ccccc1)C(=O)N[C@@H](CCCN=C(N)N)C(=O)c1nc2ccccc2s1 [N-0385, Ms-Gln-Phe-Arg-kbt] | – | – | – | – | – | – | – | – | – | – | – | – | – | – | – | – | – | – | – | Inhibition of SARS-CoV-2 infection (SARS-CoV-2 [7]): effective; Inhibition of SARS-CoV-2 infection (SARS-CoV-2 [8]): effective; IC50 (TMPRSS2 [9]): […]
CN(C)C(=O)COC(=O)Cc1ccc(OC(=O)c2ccc(NC(=N)N)cc2)cc1.CS(=O)(=O)O [camostate, camostate mesylate] | – | – | – | – | – | – | – | – | – | – | – | – | – | – | – | – | – | – | – | Outcome of clinical testing for COVID-19 (COVID-19): failed during clinical testing
